Source: US12642270B2, “Substituted thiophene carboxamides, thiophene carboxylic acids and derivatives thereof” (Bayer Aktiengesellschaft, priority 2019, dated 2026)

Assay: Log P by HPLC on reversed phase columns (EEC directive 79/831 Annex V.A8)
Format: physicochemical
Conditions: method [a]
Description: In the above tables, measurement of Log P values was performed according to EEC directive 79/831 Annex V.A8 by HPLC (High Performance Liquid Chromatography) on reversed phase columns with the following methods: • ^[a] Log P value is determined by measurement of LC-UV, in an acidic range, with 0.1% formic acid in water and acetonitrile as eluent (linear gradient from 10% acetonitrile to 95% acetonitrile). • ^[b] Log P value is determined by measurement of LC-UV, in a neutral range, with 0.001 molar ammonium acetate solution in water and acetonitrile as eluent (linear gradient from 10% acetonitrile to 95% acetonitrile). • ^[c] Log P value is determined by measurement of LC-UV, in an acidic range, with 0.1% phosphoric acid and acetonitrile as eluent (linear gradient from 10% acetonitrile to 95% acetonitrile). If more than one Log P value is available within the same method, all the values are given and separated by “+”. Calibration was done with straight-chain alkan2-ones (with 3 to 16 carbon atoms) with known Log P values (measurement of Log P values using retention times with linear interpolation between successive alkanones). Lambda-max-values were determined using UV-spectra from 200 nm to 400 nm and the peak values of the chromatographic signals.

Row | SMILES | LogP
1 | CCOC(=O)C(Cc1c[nH]c2ccccc12)NC(=O)c1sc(Br)c(Cl)c1C (stereo not shown) [1.0132] | 4.11^[a]
2 | CCOC(=O)C(C)NC(=O)c1sc(Br)c(Br)c1F (stereo not shown) [1.0133] | 3.41^[a]
3 | COC(=O)C(Cc1c[nH]cn1)NC(=O)c1sc(Br)c(Br)c1F (stereo not shown) [1.0134] | 1.39^[a]
4 | CCOC(=O)C(COC)NC(=O)c1sc(Br)c(Br)c1F (stereo not shown) [1.0135] | 3.46^[a]
5 | CCOC(=O)C(Cc1ccc(O)cc1)NC(=O)c1sc(Br)c(Br)c1F (stereo not shown) [1.0136] | 3.31^[a]
6 | CCOC(=O)C(Cc1c[nH]c2ccccc12)NC(=O)c1sc(Br)c(Br)c1F (stereo not shown) [1.0137] | 4.08^[a]
7 | CCOC(=O)C(COC)NC(=O)c1sc(Br)c(Cl)c1C (stereo not shown) [1.0138] | 3.42^[a]
8 | CCSC(=O)C1(NC(=O)c2sc(Br)c(Br)c2I)CC1 [1.0139] | 3.96^[a]
9 | CCOC(=O)C(C)NC(=O)c1sc(Br)c(Cl)c1C (stereo not shown) [1.0140] | 3.35^[a]
10 | CCOC(=O)CNC(=O)c1sc(Br)c(Br)c1Cl [1.0142] | 3.30^[a]
11 | CCOC(=O)CCNC(=O)c1sc(Br)c(Br)c1Cl [1.0143] | 3.53^[a]
12 | CCOC(=O)C1(NC(=O)c2sc(Br)c(Br)c2Cl)CCC1 [1.0144] | 4.27^[a]
13 | CCOC(=O)C(NC(=O)c1sc(Br)c(Br)c1Cl)C(C)C (stereo not shown) [1.0145] | 4.92^[a]
14 | COC(=O)C(CC(F)F)NC(=O)c1sc(Br)c(Br)c1Cl (stereo not shown) [1.0146] | 3.62^[a]
15 | CCOC(=O)C(CC(C)C)NC(=O)c1sc(Br)c(Br)c1Cl (stereo not shown) [1.0147] | 5.19^[a]
16 | CCOC(=O)C(CCSC)NC(=O)c1sc(Br)c(Br)c1Cl (stereo not shown) [1.0148] | 4.46^[a]
17 | CCOC(=O)C(Cc1ccccc1)NC(=O)c1sc(Br)c(Br)c1Cl (stereo not shown) [1.0149] | 5.00^[a]
18 | COC(=O)C1(NC(=S)c2sc(Br)c(Br)c2I)CC1 [1.0150] | 3.99^[a]
19 | CCOC(=O)[C@@H](NC(=O)c1sc(Br)c(Br)c1F)C(C)C [1.0151] | 4.47^[a]
20 | CCOC(=O)[C@H](NC(=O)c1sc(Br)c(Br)c1F)C(C)C [1.0152] | 4.47^[a]
21 | CCOC(=O)[C@@H](Cc1ccccc1)NC(=O)c1sc(Br)c(Br)c1F [1.0153] | 4.55^[a]
22 | CCOC(=O)[C@H](Cc1ccccc1)NC(=O)c1sc(Br)c(Br)c1F [1.0154] | 4.55^[a]
23 | COC(=O)[C@H](Cc1ccccc1)NC(=O)c1sc(Br)c(Br)c1F [1.0155] | 4.12^[a]
24 | CCOC(=O)[C@@H](CC(C)C)NC(=O)c1sc(Br)c(Br)c1F [1.0156] | 4.78^[a]

Row | SMILES | LogP
25 | COC(=O)[C@@H](CCSC)NC(=O)c1sc(Br)c(Br)c1F [1.0158] | 3.62^[a]
26 | COC(=O)[C@H](CCSC)NC(=O)c1sc(Br)c(Br)c1F [1.0159] | 3.62^[a]
27 | COC(=O)[C@H](CC(N)=O)NC(=O)c1sc(Br)c(Br)c1F [1.0160] | 1.94^[a]
28 | COC(=O)[C@@H](CC(N)=O)NC(=O)c1sc(Br)c(Br)c1F [1.0161] | 1.98^[a]
29 | COC(=O)C1(NC(=O)c2cc(Cl)c(Br)s2)CC1 [1.0162] | 2.48^[a]
30 | COC(=O)C1(NC(=O)c2sc(Br)c(Cl)c2C)CC1 [1.0163] | 2.76^[a]
31 | COC(=O)C1(NC(=O)c2cc(Br)c(Cl)s2)CC1 [1.0164] | 2.51^[a]
32 | COC(=O)C1(NC(=O)c2sc(Cl)c(Br)c2C)CC1 [1.0165] | 2.80^[a]
33 | CCOC(=O)C1(NC(=O)c2sc(Br)c(Br)c2F)CCC1 [1.0166] | 3.78^[a]
34 | CCOC(=O)CN(C)C(=O)c1sc(Br)c(Br)c1F [1.0167] | 3.09^[a]
35 | Cc1c(C(=O)NC2(C(=O)O)CC2)sc(Br)c1Cl [1.0168] | 2.20^[a]
36 | O=C(NC1(C(=O)O)CC1)c1cc(Br)c(Cl)s1 [1.0169] | 2.02^[a]
37 | Cc1c(C(=O)NC2(C(=O)O)CC2)sc(Cl)c1Br [1.0170] | 2.21^[a]
38 | CCOC(=O)C(C(C)C)N(C)C(=O)c1sc(Br)c(Br)c1F (stereo not shown) [1.0171] | 4.39^[a]
39 | O=C(NC1(C(=O)O)CCC1)c1sc(Br)c(Br)c1F [1.0172] | 2.62^[a]
40 | O=C(O)C1(NC(=S)c2sc(Br)c(Br)c2I)CC1 [1.0173] | 3.09^[a]
41 | NC(=O)C1(NC(=O)c2sc(Br)c(Br)c2F)CC1 [1.0174] | 1.94^[a]
42 | CCOC(=O)C(NC(=O)c1sc(Br)c(Br)c1F)c1ccccc1 (stereo not shown) [1.0175] | 4.47^[a]
43 | N#CCNC(=O)c1sc(Cl)c(Br)c1Cl [1.0176] | 2.70^[a]
44 | COC(=O)CNC(=O)c1sc(Cl)c(Br)c1Cl [1.0177] | 2.85^[a]
45 | CCOC(=O)CNC(=O)c1sc(Cl)c(Br)c1Cl [1.0178] | 3.37^[a]
46 | CCOC(=O)CCNC(=O)c1sc(Cl)c(Br)c1Cl [1.0179] | 3.54^[a]
47 | CCOC(=O)C1(NC(=O)c2sc(Cl)c(Br)c2Cl)CC1 [1.0180] | 3.47^[a]
48 | COC(=O)C(NC(=O)c1sc(Cl)c(Br)c1Cl)C1CC1 (stereo not shown) [1.0181] | 3.91^[a]

Row | SMILES | LogP
49 | CCOC(=O)C1(NC(=O)c2sc(Cl)c(Br)c2Cl)CCC1 [1.0182] | 4.33^[a]
50 | CCOC(=O)C(NC(=O)c1sc(Cl)c(Br)c1Cl)C(C)C (stereo not shown) [1.0183] | 4.97^[a]
51 | COC(=O)C(CC(F)F)NC(=O)c1sc(Cl)c(Br)c1Cl (stereo not shown) [1.0184] | 3.64^[a]
52 | CCOC(=O)C(CC(C)C)NC(=O)c1sc(Cl)c(Br)c1Cl (stereo not shown) [1.0185] | 5.20^[a]
53 | CCOC(=O)C(CCSC)NC(=O)c1sc(Cl)c(Br)c1Cl (stereo not shown) [1.0186] | 4.47^[a]
54 | CCOC(=O)C(Cc1ccccc1)NC(=O)c1sc(Cl)c(Br)c1Cl (stereo not shown) [1.0187] | 5.04^[a]
55 | N#CCNC(=O)c1sc(Cl)c(Cl)c1I [1.0188] | 2.72^[a]
56 | CCOC(=O)CCNC(=O)c1sc(Cl)c(Cl)c1I [1.0189] | 3.47^[a]
57 | COC(=O)C(NC(=O)c1sc(Cl)c(Cl)c1I)C1CC1 (stereo not shown) [1.0190] | 3.84^[a]
58 | CCOC(=O)C1(NC(=O)c2sc(Cl)c(Cl)c2I)CCC1 [1.0191] | 4.12^[a]
59 | COC(=O)C(CC(F)F)NC(=O)c1sc(Cl)c(Cl)c1I (stereo not shown) [1.0192] | 3.64^[a]
60 | N#CCNC(=O)c1sc(Br)c(Cl)c1Cl [1.0193] | 2.67^[a]
61 | COC(=O)CNC(=O)c1sc(Br)c(Cl)c1Cl [1.0194] | 2.86^[a]
62 | CCOC(=O)CNC(=O)c1sc(Br)c(Cl)c1Cl [1.0195] | 3.28^[a]
63 | CCOC(=O)CCNC(=O)c1sc(Br)c(Cl)c1Cl [1.0196] | 3.47^[a]
64 | CCOC(=O)C1(NC(=O)c2sc(Br)c(Cl)c2Cl)CC1 [1.0197] | 3.47^[a]
65 | COC(=O)C(NC(=O)c1sc(Br)c(Cl)c1Cl)C1CC1 (stereo not shown) [1.0198] | 3.87^[a]
66 | CCOC(=O)C1(NC(=O)c2sc(Br)c(Cl)c2Cl)CCC1 [1.0199] | 4.26^[a]
67 | CCOC(=O)C(NC(=O)c1sc(Br)c(Cl)c1Cl)C(C)C (stereo not shown) [1.0200] | 4.89^[a]
68 | COC(=O)C(CC(F)F)NC(=O)c1sc(Br)c(Cl)c1Cl (stereo not shown) [1.0201] | 3.60^[a]
69 | CCOC(=O)C(CC(C)C)NC(=O)c1sc(Br)c(Cl)c1Cl (stereo not shown) [1.0202] | 5.16^[a]
70 | CCOC(=O)C(CCSC)NC(=O)c1sc(Br)c(Cl)c1Cl (stereo not shown) [1.0203] | 4.44^[a]
71 | CCOC(=O)C(Cc1ccccc1)NC(=O)c1sc(Br)c(Cl)c1Cl (stereo not shown) [1.0204] | 5.00^[a]
72 | N#CCNC(=O)c1sc(Br)c(Br)c1F [1.0205] | 2.41^[a]

Row | SMILES | LogP
73 | N#CCNC(=O)c1sc(Cl)c(Br)c1Br [1.0206] | 2.72^[a]
74 | COC(=O)CNC(=O)c1sc(Cl)c(Br)c1Br [1.0207] | 2.91^[a]
75 | CCOC(=O)CNC(=O)c1sc(Cl)c(Br)c1Br [1.0208] | 3.35^[a]
76 | CCOC(=O)CCNC(=O)c1sc(Cl)c(Br)c1Br [1.0209] | 3.57^[a]
77 | CCOC(=O)C1(NC(=O)c2sc(Cl)c(Br)c2Br)CC1 [1.0210] | 3.48^[a]
78 | COC(=O)C(NC(=O)c1sc(Cl)c(Br)c1Br)C1CC1 (stereo not shown) [1.0211] | 3.89^[a]
79 | CCOC(=O)C1(NC(=O)c2sc(Cl)c(Br)c2Br)CCC1 [1.0212] | 4.24^[a]
80 | CCOC(=O)C(NC(=O)c1sc(Cl)c(Br)c1Br)C(C)C (stereo not shown) [1.0213] | 4.89^[a]
81 | COC(=O)C(CC(F)F)NC(=O)c1sc(Cl)c(Br)c1Br (stereo not shown) [1.0214] | 3.64^[a]
82 | CCOC(=O)C(CC(C)C)NC(=O)c1sc(Cl)c(Br)c1Br (stereo not shown) [1.0215] | 5.18^[a]
83 | CCOC(=O)C(CCSC)NC(=O)c1sc(Cl)c(Br)c1Br (stereo not shown) [1.0216] | 4.40^[a]
84 | CCOC(=O)C(Cc1ccccc1)NC(=O)c1sc(Cl)c(Br)c1Br (stereo not shown) [1.0217] | 5.04^[a]
85 | O=C(NC(Cc1ccccc1)C(=O)O)c1sc(Br)c(Br)c1F (stereo not shown) [1.0226] | 3.22^[a]
86 | O=C(O)CNC(=O)c1sc(Br)c(Br)c1F [1.0227] | 2.01^[a]
87 | O=C(NC(CO)C(=O)O)c1sc(Br)c(Br)c1F (stereo not shown) [1.0228] | 1.77^[a]
88 | CC(C)CC(NC(=O)c1sc(Br)c(Br)c1F)C(=O)O (stereo not shown) [1.0229] | 3.34^[a]
89 | NC(=O)CCC(NC(=O)c1sc(Br)c(Br)c1F)C(=O)O (stereo not shown) [1.0230] | 1.65^[a]
90 | O=C(NC(Cc1c[nH]c2ccccc12)C(=O)O)c1sc(Br)c(Br)c1F (stereo not shown) [1.0231] | 3.05^[a]
91 | CCOC(=O)C1(NC(=O)c2sc(Cl)c(Cl)c2C#N)CC1 [1.0232] | 2.72^[a]
92 | CC(NC(=O)c1sc(Br)c(Br)c1F)C(=O)O (stereo not shown) [1.0233] | 2.28^[a]
93 | CC(C)C(NC(=O)c1sc(Br)c(Br)c1F)C(=O)O (stereo not shown) [1.0234] | 2.97^[a]
94 | CCOC(=O)CNC(=O)c1sc(Cl)c(Cl)c1C#N [1.0236] | 2.52^[a]
